Reference: patent US8455240B2, “Use of thermophilic sulphate-reducing archaea for the implementation of a process for the degradation of hydrocarbons” (Institut de Recherche pour le Development (I.R.D.), priority 2005, dated 2013)
“And” between values parts separate entries of the source, which are not always exact repeats. Identical values can stand only once.

Experiments:
[1] = system: Archaeoglobus fulgidus; assay: Screening for hydrocarbon degradation, A. fulgidus (sulphide production, Cord-Ruwish); format: cell-based; conditions: for ΔS tf-ti: final minus initial sulphide; for sulphide production (OD 480) 0 d: aromatics solubilized in HMN
Procedure: (§1) Experimentally, 4 ml of Cord-Ruwish reagent comprising 50 mmol/l of HCl and 5 mmol/l of CuSO4 are added to 0.1 ml of sample. Copper sulphate (CuSO4) by reacting with hydrogen sulphide (H2S), forms a copper sulphide precipitate (CuS) after the reaction: CuSO4+H2S→CuS+H2SO4
(§2) According to this method, the CuS is assayed by spectrophotometry at 480 nm. The readings are carried out against a blank constituted by 4 ml of Cord-Ruwish reagent.
(§3) The study of the hydrocarbon degradation abilities is an experiment which requires a particularly long incubation. Thus, it was carried out in Bellco tubes sealed with thick rubber stoppers.
(§4) For these experiments, tubes containing 10 ml of culture medium without substrate, are 10% inoculated, then the hydrocarbon is introduced by injection through the stopper.
(§5) The hydrocarbons chosen are model molecules belonging to the different classes of hydrocarbons, namely: • hexadecane (CH3(CH2)14CH3, C16), a saturated linear aliphatic hydrocarbon; • hexadecene (CH3(CH2)13CHCH2, C16:1), an unsaturated linear aliphatic hydrocarbon of biogenic origin; • dibenzothiophene (DBT, C12H8S), a sulphur-containing aromatic hydrocarbon.
(§6) The aliphatic hydrocarbons (C16; C16:1) are added to the corresponding tubes, at a rate of 0.04 ml/10 ml of culture medium. The aromatic hydrocarbons (DBT) are solubilized in 2,2,4,4,6,8,8-heptamethylnonane (HMN, C16H34) at a rate of 20 mg/ml of HMN, and 0.75 ml of this solution is injected into 10 ml of culture medium.
(§7) 3 tubes were produced for each test and control. The growth of the strains was monitored indirectly by the production of sulphide.
(§8) A subculture was carried out starting from the preceding experiment on naphthalene, DBT solubilized as previously in HMN, and on HMN alone, for the two strains studied.

[2] = system: strain L-3; assay: Screening for hydrocarbon degradation, strain L-3 (sulphide production, Cord-Ruwish); format: cell-based, Archaeoglobus fulgidus CNCM I-3465 (strain L-3); conditions: for sulphide production (OD 480) 0 d: aromatics solubilized in HMN
Procedure: as §1, §2, §3, §4, §5, §6, §7, §8

[3] = system: strain L-3; assay: Sources of carbon and energy used by the strain L-3; format: cell-based, Archaeoglobus fulgidus CNCM I-3465 (strain L-3); conditions: for OD 580 nm Final / OD 580 nm Initial / H2S (480 nm): thiosulphate as electron acceptor; for HPLC analyses, initial quantity of the substrate: no increase in biomass or sulphide, explained by isomerization at high temperature
Procedure: as §1, §2
(§9) The analysis and quantification of the metabolites are carried out by HPLC by measuring the disappearance of the substrate and the appearance of different metabolism products.
The study of the growth of the strain L-3 in the presence of different sources of carbon and energy was carried out with thiosulphate as an electron acceptor. The monitoring was carried out by estimation of the cell biomass (OD 580 nm), by assay of the sulphide production (Cord-Ruwish). The results were confirmed by HPLC analyses, and completed in certain cases by a CO2 assay.

[4] = system: Archaeoglobus fulgidus (DSM 4304); assay: Degradation of different substrates by A. fulgidus as a function of the electron acceptor; format: cell-based; conditions: for ability of Archaeoglobus fulgidus to oxidize the substrate: thiosulphate or sulphate as electron acceptor
Procedure: as §1, §2, §9
(§10) The study of the degradation abilities of different substrates of the strain L-3 was based on a comparison with the collection strain, Archaeoglobus fulgidus (DSM 4304). The degradation of the substrates, by the two strains was monitored by a measurement of the cell biomass at 580 nm, a sulphide assay produced according to the Cord-Ruwish method, a study of the degradation metabolites by HPLC, completed by a CO2 assay with a GPC-Katharometer.
(§11) Two series of tests were prepared, one with thiosulphate, the other with sulphate as an electron acceptor.

[5] = system: strain L-3; assay: Degradation of different substrates by the strain L-3 as a function of the electron acceptor; format: cell-based, Archaeoglobus fulgidus CNCM I-3465 (strain L-3); parameters: total H2S: unit not given here; conditions: for ability of the strain L-3 to degrade the substrate: thiosulphate or sulphate as electron acceptor
Procedure: as §1, §2, §9, §10, §11

[6] = system: A. fulgidus; assay: Subculture on hydrocarbons, A. fulgidus (sulphide production); format: cell-based, Archaeoglobus fulgidus
Procedure: as §1, §2, §8
(§12) For this subculture, apart from the tests containing the hydrocarbon (DBT, naphthalene (Naph), […]), and seeded with the previously chosen inoculum, abiotic controls (negative controls) containing the substrate (hydrocarbon) but not inoculated were produced for the purpose of quantifying the sulphide production which could be due to chemical reactions between the different constituents of the medium. In these controls there was no development in the concentration of sulphide over a period of 20 days (Table 4).

[7] = system: strain L-3; assay: Subculture on hydrocarbons, strain L-3 (sulphide production); format: cell-based, Archaeoglobus fulgidus CNCM I-3465 (strain L-3)
Procedure: as §1, §2, §8, §12

[8] = sulphate as electron acceptor, unit from b116
[9] = thiosulphate as electron acceptor
[10] = thiosulphate as electron acceptor, unit from b116
[11] = choice of the inoculum for the subculture, tubes of the screening

## c1ccc2c(c1)ccc1ccccc12 [Phenanthrene, phenanthrene]
[1]
  sulphide production (OD 480) 10 d: 1.1 mM and 0.8 mM and 1.4 mM
  sulphide production (OD 480) 60 d: 0.8 mM and 0.5 mM
  ΔS tf-ti: ≤ 0.5 mM
[2]
  sulphide production (OD 480) 45 d: 0.5 mM and 1 mM and 0.8 mM
  sulphide production (OD 480) 60 d: 0.4 mM and 0.5 mM and 0.3 mM
  sulphide production (OD 480) 70 d: 0.5 mM and 0.6 mM and 0.8 mM
[2]; final minus initial sulphide
  ΔS tf-ti: ≤ 0.5 mM

## CCC(=O)O [Propionate, propionate]
[3]
  OD 580 nm Final: 0.0871 and 0.072
  OD 580 nm Initial: 0.0669 and 0.0717
[3]; unit from b126
  H2S (480 nm): 0.3 mM

## hexadecene [C16:1]
[1]
  sulphide production (OD 480) 0 d: 0.8 mM and 0.6 mM
  sulphide production (OD 480) 45 d: 3.6 mM and 4.3 mM
  ΔS tf-ti: approximately 3 mM
[1]; listed as C16: 1
  ΔS tf-ti: 2.8 mM and 3.0 mM and 3.5 mM

## O=C(O)/C=C/C(=O)O [Fumarate]
[4]; sulphate as electron acceptor
  final OD 580: 0.1122 and 0.14
  initial OD 580: 0.0759 and 0.085
[4]; [8]
  total H2S: 2.4 mM and 3.1 mM
[4]; sulphate as electron acceptor, unit from b116, listed as fumarate
  total H2S: ≤ 3.1 mM
[4]; [9]
  final OD 580: 0.1399 and 0.1535
  initial OD 580: 0.1085 and 0.117
[4]; [10]
  total H2S: 5.1 mM and 6.5 mM
[4]; thiosulphate as electron acceptor, unit from b116, listed as fumarate
  total H2S: 6.5 mM
[4]
  ability of Archaeoglobus fulgidus to oxidize the substrate: capable of oxidizing
[5]; sulphate as electron acceptor
  final OD 580: 0.1085 and 0.0899
  initial OD 580: 0.0606 and 0.062
  total H2S: 2.5 and 3.3
[5]; [9]
  final OD 580: 0.1431 and 0.1137
  initial OD 580: 0.1083 and 0.0796
  total H2S: 3.2 and 2.5
[5]
  ability of the strain L-3 to degrade the substrate: capable of degrading

## CC(=O)C(=O)O [Pyruvate, pyruvate]
[4]; sulphate as electron acceptor
  final OD 580: 0.1643 and 0.1575
  initial OD 580: 0.1281 and 0.1377
  total H2S: 10.3 mM and 7.3 mM
[4]; [9]
  final OD 580: 0.3668 and 0.3489
  initial OD 580: 0.1368 and 0.1351
[5]; sulphate as electron acceptor
  final OD 580: 0.0958 and 0.0944
  initial OD 580: 0.0603 and 0.0636
  total H2S: 3.5 and 3.3
[5]; [9]
  final OD 580: 0.1161 and 0.0863
  initial OD 580: 0.0785 and 0.0911
  total H2S: 4
[3]
  H2S (480 nm): 5.2 mM
  OD 580 nm Final: 0.1315 and 0.1758
  OD 580 nm Initial: 0.067 and 0.0713

## CC(=O)O [Acetate]
[3]
  OD 580 nm Final: 0.0904 and 0.0812
  OD 580 nm Initial: 0.0671 and 0.0771
[3]; unit from b126
  H2S (480 nm): 0.4 mM and 0.3 mM

## O=CO [Formate]
[4]; sulphate as electron acceptor
  final OD 580: 0.1 and 0.1157
  initial OD 580: 0.0805 and 0.0853
[4]; [8]
  total H2S: 3.6 mM and 5 mM
[4]; [9]
  final OD 580: 0.1218 and 0.1208
  initial OD 580: 0.1107 and 0.1183
[4]; [10]
  total H2S: 5.8 mM and 7.4 mM
[4]
  ability of Archaeoglobus fulgidus to oxidize the substrate: capable of oxidizing
[5]; sulphate as electron acceptor
  final OD 580: 0.0711 and 0.064
  initial OD 580: 0.0585 and 0.0634
  total H2S: 2.5 and 5
[5]; [9]
  final OD 580: 0.1048 and 0.1186
  initial OD 580: 0.1003 and 0.1241
  total H2S: 3.6 and 2.8
[5]
  ability of the strain L-3 to degrade the substrate: does not develop
[3]
  OD 580 nm Final: 0.0672 and 0.0759
  OD 580 nm Initial: 0.0765 and 0.0875
[3]; unit from b126
  H2S (480 nm): 0.2 mM and 0.4 mM

## O=C[C@H](O)[C@H](O)[C@H](O)CO [Ribose, ribose]
[3]
  HPLC analyses, initial quantity of the substrate: reduction in the initial quantity of the substrate
  OD 580 nm Final: 0.3422 and 0.21
[3]; unit from b126
  H2S (480 nm): 0.6 mM and 0.5 mM

## O=C(CO)[C@@H](O)[C@H](O)[C@H](O)CO [Fructose, fructose]
[3]
  HPLC analyses, initial quantity of the substrate: reduction in the initial quantity of the substrate
  OD 580 nm Final: 0.1003 and 0.0893
  OD 580 nm Initial: 0.0663 and 0.0818
[3]; unit from b126
  H2S (480 nm): 0.3 mM

## CCCCCCCCCCCCCCCC [C16, hexadecane]
[1]
  sulphide production (OD 480) 0 d: 0.7 mM and 0.8 mM and 0.9 mM
  sulphide production (OD 480) 70 d: 1 mM and 0.5 mM and 0.8 mM
[2]
  sulphide production (OD 480) 0 d: 0.6 mM and 0.5 mM and 0.9 mM

## Starch
[3]
  OD 580 nm Initial: 0.8834 and 0.8614
[3]; unit from b126
  H2S (480 nm): 0.8 mM and 0.7 mM

## Gelatin
[3]
  OD 580 nm Final: 0.0743 and 0.0767
  OD 580 nm Initial: 0.0629 and 0.0894
[3]; unit from b126
  H2S (480 nm): 0.3 mM and 0.2 mM

## c1ccc2ccccc2c1 [Naphthalene, naphthalene]
[1]
  sulphide production (OD 480) 0 d: 0.8 mM
  sulphide production (OD 480) 10 d: 0.4 mM and 0.6 mM and 0.8 mM
  sulphide production (OD 480) 45 d: 0.8 mM and 1.1 mM and 1.4 mM
  sulphide production (OD 480) 60 d: 0.7 mM and 1.2 mM
  sulphide production (OD 480) 70 d: 1.3 mM and 1.7 mM
  ΔS tf-ti: 0.5 mM and 0.9 mM
[1]; [11]
  H2S: 1.3 mM and 1.7 mM
[2]
  sulphide production (OD 480) 0 d: 0.8 mM and 0.6 mM
  sulphide production (OD 480) 45 d: 0.9 mM and 1 mM and 0.8 mM
  sulphide production (OD 480) 60 d: 0.6 mM and 0.5 mM
  sulphide production (OD 480) 70 d: 1.7 mM and 1.3 mM and 1.1 mM
[2]; 10 d
  sulphide production (OD 480) 10 d: 0.4 mM and 0.3 mM and 0.6 mM
[2]; [11]
  H2S: 1.3 mM and 1.1 mM
[6]; 0 d
  sulphide production (OD 480) 0 d: 0.2 mM
[6]; 8 d
  sulphide production (OD 480) 8 d: 0.8 mM and 0.4 mM and 0.5 mM
[7]; 0 d
  sulphide production (OD 480) 0 d: 0.2 mM (2×) and 0.3 mM
[7]; 8 d
  sulphide production (OD 480) 8 d: 0.5 mM and 0.4 mM and 0.6 mM
[7]; 22 d
  sulphide production (OD 480) 22 d: 0.9 mM and 0.5 mM and 0.8 mM
[7]; 45 d
  sulphide production (OD 480) 45 d: 0.9 mM and 0.7 mM and 1.3 mM
[7]; final minus initial sulphide
  ΔS tf-ti: 0.7 mM and 0.5 mM and 1 mM

## O=C(O)CCC(=O)O [Succinate]
[3]
  OD 580 nm Final: 0.0659 and 0.0672
  OD 580 nm Initial: 0.0845 and 0.0791
[3]; unit from b126
  H2S (480 nm): 0.3 mM
